Reference: patent US20240293418A1, “COMBINATION THERAPY FOR TREATING CANCER” (Epizyme, Inc., priority 2016, published 2024)
Read-outs that look alike come from different tables or passages of the source.

How the values were obtained:
[1] = system: U266; assay: 7 day pretreatment + 4-day co-treatment combination model (Cell Titer Glo); conditions: for IC50: read-out: 4-day IC50
Description: (§1) Assay plates were developed for endpoint analysis using Cell Titer Glo to measure ATP content, which was used as an indicator of cell viability. DMSO concentration was kept constant throughout the assay at less than 0.2% v/v.
(§2) Cell lines: The cell lines MI1.S and U266B1 were obtained from American Type Culture Collection (ATCC; Rockville, MD). The cell lines LP-1, L-363 were obtained from Deutsche Sammlung von Mikroorganismen and Zellkulturen (DSMZ; Braunschweig, Germany) and the cell line KMS-28BM was obtained from Japanese Collection of Research Bioresources Cell Bank (JCRB, Osaka Japan). All cells were maintained as instructed by the supplier and cultures were maintained at 37° C. in a humidified atmosphere and 5% CO2.
(§3) Loewe volumes greater than 1 denoted synergy and volumes <−1 denoted antagonism.

[2] = system: MOLP-8; assay: as above; conditions: second agent + tazemetostat, MOLP-8 t(11;14)
Protocol: as §1
(§4) All cells were maintained as instructed by the supplier and cultures were maintained at 37° C. in a humidified atmosphere and 5% CO2.
as §3

[3] = system: LP-1; assay: as above; conditions: for IC50: read-out: 4-day IC50
Description: as §1, §2, §3

[4] = system: KMS-28-BM; assay: as above; conditions: for IC50: read-out: 4-day IC50
Protocol: as §1, §4, §3

[5] = system: L-363; assay: as above; conditions: for IC50: read-out: 4-day IC50
Description: as §1, §2, §3

[6] = system: MM1.S; assay: as above; conditions: read-out: 4-day IC50
Description: as §1, §2, §3

[7] = system: Jeko-1; assay: mantle cell lymphoma 7 day co-treatment model; format: cell-based; conditions: for Best CI / Bliss Volume / HSA Volume / Loewe Volume / Synergy Score: second agent + tazemetostat, 7 day co-treatment; for IC50: second agent alone, 7 day co-treatment model
[8] = system: Jeko-1; assay: mantle cell lymphoma 7 day pretreatment + 4-day co-treatment model (Cell Titer Glo); conditions: for IC50: Homo sapiens, JeKo-1, 96 h, read-out: Second agent IC50; for Bliss Volume / HSA Volume / Loewe Volume / Synergy Score: second agent + tazemetostat, 7 day pretreatment + 4-day co-treatment, Jeko-1
Description: (§5) Cells were then co-treated in triplicate with a second compound, 3-fold serially diluted for additional 4 days. After this time, plates were developed for endpoint analysis using Cell Titer Glo to measure ATP content, which is used as an indicator of cell viability.
(§6) A Loewe volume greater than 1 denoted synergy. A Loewe volume between −1 and 1 denoted additivity, and a negative Loewe volume of less than −1, denoted antagonism.

[9] = system: Granta-519; assay: as above; conditions: second agent + tazemetostat; 7 day pretreatment + 4-day co-treatment; Granta-519
Description: as §5, §6

[10] = system: Maver-1; assay: as above
Description: as §5, §6

[11] = system: Granta-519; assay: mantle cell lymphoma 7 day co-treatment model; format: cell-based
[12] = second agent + tazemetostat, 7 day pretreatment + 4-day co-treatment, U266 t(11;14)
[13] = second agent + tazemetostat, 7 day pretreatment + 4-day co-treatment, LP-1 t(4;14)
[14] = second agent + tazemetostat, 7 day pretreatment + 4-day co-treatment, KMS-28-BM t(4;14)
[15] = second agent + tazemetostat, 7 day pretreatment + 4-day co-treatment, L-363 t(20;22)
[16] = second agent + tazemetostat, 7 day pretreatment + 4-day co-treatment, Maver-1
[17] = second agent + tazemetostat, 7 day co-treatment

Compound	IC50 ([1]; Homo sapiens, U-266, 96 h) [nM]	combinatorial effect by Loewe volumes [1, 12]	combinatorial effect by Loewe volumes [2]	IC50 ([3]; Homo sapiens, LP-1, 96 h) [nM]	combinatorial effect by Loewe volumes [3, 13]	IC50 ([4]; KMS-28BM, 96 h) [nM]	combinatorial effect by Loewe volumes [4, 14]	IC50 ([5]; Homo sapiens, L-363, 96 h) [nM]	combinatorial effect by Loewe volumes [5, 15]	IC50 ([6]; Homo sapiens, MM1.S, 96 h) [nM]	also measured
CC(C)C[C@H](NC(=O)[C@H](CCc1ccccc1)NC(=O)CN1CCOCC1)C(=O)N[C@@H](Cc1ccccc1)C(=O)N[C@@H](CC(C)C)C(=O)[C@@]1(C)CO1 [Carfilzomib, carfilzomib]	3	S (Synergy)	A (Additive)	3.5	S (Synergy)	2	S (Synergy)	2	A (Additive)	1.07	–
N[C@@H](Cc1ccc(N(CCCl)CCCl)cc1)C(=O)O [Melphalan, melphalan]	> 10000	–	–	> 10000	–	1120	–	> 10000	–	2940	–
O=P1(N(CCCl)CCCl)NCCCO1 (stereo not shown) [Cyclophosphomide, cyclophosphamide]	> 10000	–	–	6000	–	1480	–	> 10000	–	1180	–
Cn1c(CCCC(=O)O)nc2cc(N(CCCl)CCCl)ccc21 [Bendamustine, bendamustine]	> 10000	–	–	> 10000	–	> 10000	–	> 10000	–	> 10000	–
Nc1cccc2c1CN(C1CCC(=O)NC1=O)C2=O (stereo not shown) [Lenalidomide, lenalidomide]	> 10000	S (Synergy)	S (Synergy)	973	S (Synergy)	> 10000	S (Synergy)	379	S (Synergy)	305	Best CI [7]: 0.35; Bliss Volume [7]: 1.86; HSA Volume [7]: 2.74; Loewe Volume [7]: 2.87; Synergy Score [7]: 3.68; IC50 [7]: 872 nM; IC50 [8]: 902 nM; Bliss Volume [8]: 2.67; HSA Volume [8]: 4.46; Loewe Volume [8]: 4.35; Synergy Score [8]: 4.01
CC[C@]1(O)C[C@H]2CN(CCc3c([nH]c4ccccc34)[C@@](C(=O)OC)(c3cc4c(cc3OC)N(C=O)[C@H]3[C@@](O)(C(=O)OC)[C@H](OC(C)=O)[C@]5(CC)C=CCN6CC[C@]43[C@@H]65)C2)C1 [Vincristine, vincristine]	0.5	–	–	2.3	–	1.15	–	1	–	1	–
COc1cccc2c1C(=O)c1c(O)c3c(c(O)c1C2=O)C[C@@](O)(C(=O)CO)C[C@@H]3O[C@H]1C[C@H](N)[C@H](O)[C@H](C)O1 [Doxorubicin, doxorubicin]	50	A (Additive)	A (Additive)	203	S (Synergy)	87	A (Additive)	10	A (Additive)	8	–
O=C1CCC(N2C(=O)c3ccccc3C2=O)C(=O)N1 (stereo not shown) [Thalidomide, thalidomide]	> 10000	–	–	> 10000	–	> 10000	–	> 10000	–	> 10000	–
O=C(CCCCCCC(=O)Nc1ccccc1)NO [Vorinostat, vorinostat]	–	S (Synergy)	A (Additive)	669	S (Synergy)	–	S (Synergy)	–	A (Additive)	–	–
CO[C@H]1C[C@@H]2CC[C@@H](C)[C@@](O)(O2)C(=O)C(=O)N2CCCC[C@H]2C(=O)O[C@H]([C@H](C)C[C@@H]2CC[C@@H](OCCO)[C@H](OC)C2)CC(=O)[C@H](C)/C=C(\C)[C@@H](O)[C@@H](OC)C(=O)[C@H](C)C[C@H](C)/C=C/C=C/C=C/1C [Everolimus, everolimus]	–	–	–	–	–	–	–	–	–	–	Best CI [7]: 1.0; Bliss Volume [7]: −0.060; HSA Volume [7]: 0.084; Loewe Volume [7]: 0.56; Synergy Score [7]: 0.4; IC50 [7]: 0.5 nM; Loewe volume [9]: 5.1; Loewe volume [10, 16]: 6.5; IC50 [8]: 0.7 nM; Bliss Volume [8]: 1.42; HSA Volume [8]: 4.62; Loewe Volume [8]: 3.95; Synergy Score [8]: 4.03
COc1cc([C@@H]2c3cc4c(cc3[C@@H](O[C@@H]3O[C@@H]5CO[C@@H](C)O[C@H]5[C@H](O)[C@H]3O)[C@H]3COC(=O)[C@H]23)OCO4)cc(OC)c1O [Etoposide, etoposide]	787	–	–	3000	–	478	–	140	–	122	–
C=CC(=O)N1CCC[C@@H](n2nc(-c3ccc(Oc4ccccc4)cc3)c3c(N)ncnc32)C1 [Ibrutinib, ibrutinib]	–	–	–	–	–	–	–	–	–	–	IC50 ([11]; Homo sapiens, 168 h, second agent alone, 7 day co-treatment model): 856 nM; Best CI [11, 17]: 0.38; Bliss Volume [11, 17]: 0.894; HSA Volume [11, 17]: 3.86; Loewe Volume [11, 17]: 4.16; Synergy Score [11, 17]: 2.26; Loewe volume [9]: 5.8; IC50 ([10]; Homo sapiens, Maver1, read-out: Second agent IC50): > 3300 nM; Best CI [10, 16]: 0.08; Bliss Volume [10, 16]: 0.804; HSA Volume [10, 16]: 3.90; Loewe Volume [10, 16]: 3.76; Loewe volume [10, 16]: 3.8; Synergy Score [10, 16]: 2.33
C[C@]12C=CC(=O)C=C1CC[C@@H]1[C@@H]2[C@@H](O)C[C@@]2(C)[C@H]1CC[C@]2(O)C(=O)CO [Prednisolone, prednisolone]	> 10000	A (Additive)	S (Synergy)	36	S (Synergy)	36	S (Synergy)	100	A (Additive)	158	–
CC(C)C[C@H](NC(=O)CNC(=O)c1cc(Cl)ccc1Cl)B(O)O [Ixazomib, ixazomib]	–	–	A (Additive)	–	–	–	–	–	–	–	combinatorial effect by Loewe volumes [1]: S (key: Antagonism; Synergy; Additive; X: Not Tested); IC50 ([1]; single agent, U266 t(11; 14)): 1.5 nM; combinatorial effect by Loewe volumes [3]: S (key: Antagonism; Synergy; Additive; X: Not Tested); IC50 ([3]; single agent, LP-1 t(4; 14)): 12 nM; combinatorial effect by Loewe volumes [4]: A (key: Antagonism; Synergy; Additive; X: Not Tested); IC50 ([4]; single agent, KMS-28-BM t(4; 14)): 19 nM; combinatorial effect by Loewe volumes [5]: A (key: Antagonism; Synergy; Additive; X: Not Tested); IC50 ([5]; single agent, L-363 t(20; 22)): 47 nM; IC50 ([6]; single agent, MM1.S t(14; 16)): 12 nM
